# Values of other authors as cited in patent publication US20240100117A1, “NUTRITION-BASED METHOD FOR MANAGING ANIMAL BEHAVIOR” (Morgenstern & Associates, LLC, priority 2022, published 2024).
# Key:
# [1] = general reference values; at room temperature
# [2] = system: conversion of 5-HTP to serotonin; conditions: supplementation, primate animal models
Compound,viscosity [1],conversion of 5-HTP to serotonin [2]
O [water],about 1 cP,–
"Cc1ncc(CO)c(CO)c1O [vitamin B6, pyridoxine]",–,increased the conversion of 5-HTP to serotonin
OCC(O)CO [glycerin],about 950 cP,–
